Measurements published in US12171821B2, “Toxoplasma gondii vaccine” (priority 2018, dated 2024).
Several values for one entry are separate records, joined by “and”; a condition that tells them apart may be missing. Equal values may be shown once. Entries after “also recorded” stand apart in the source; their conditions may differ.

Tests used:
T. gondii = experiment: Real-time PCR (SAG1) on gDNA of mouse fecal samples; type: in vivo, Toxoplasma gondii; conditions: gDNA of mouse fecal samples
Description: Delta-6-desaturase inhibition. SC 26196 (Cayman) was solubilized in DMSO and used at 20 μM in mouse organoid monolayers. For in vivo treatment, the inhibitor was solubilized in 0.5% m/v methylcellulose and the mice were given 50 mg/kg every 12 hours by oral gavage (He et al., 2012). 4-week old C57BL/6J female mice deleted in Z-DNA-binding protein (Pittman et al., 2016) were divided into four different groups: uninfected control, T. gondii-infected without fatty acid supplementation, T. gondii infected with linoleic acid supplementation, and T. gondii-infected with linoleic acid and SC 26196 inhibitor. Each mouse supplemented with linoleic acid received 10 μL of 99% linoleic acid oil (MilliporaSigma Cat #843483) suspended in 0.5% Methylcellulose per day by oral gavage. Mice were infected with 1000 brain cysts purified as described above by oral gavage and euthanized 7 days post infection. Sample size was at least 2 mice per group and the experiment was repeated 5 times. Alternatively, each mouse was infected with one mouse brain at least 2 months postinfection with at least 1000 cysts. Mice were treated with SC 26196 until day 5 postinfection. Feces were collected from days 5-14 and oocysts enumerated by microscopy.
Real-time PCR on fecal samples. […] A standard curve was generated using a dilution series of 101-105 parasites per well amplified using the SAG1 primer set described above, based on a gDNA sample with known parasite quantity. […]
[formula] […] The calculated copy numbers of each sample were normalized based on the ng of nucleic acid used as PCR template. […]
Statistical methods. […] The difference between the mean target gene copy numbers was analyzed by two-tailed unpaired t tests. […] The difference between the mean relative expression of each target gene was analyzed by two-tailed unpaired t tests.

asexual tachyzoite stage = conditions: prior work (Shamseddin et al., 2015); cited from earlier work
[1] = tested on: T. gondii ME49 bradyzoites; experiment: Gametes and intracellular oocyst walls (AO2, 3G4, PCR) in infected cat intestinal monolayers; type: cell-based, Toxoplasma gondii
Description: FIGS. 7A-H. Identification of gametes and intracellular oocysts in cat tissue culture. Cat intestinal organoids were disassociated by trypsin then grown as monolayers on glass slides. […] After 7 days, monolayers were incubated with mouse anti-AO2 (panels A-C) or mouse monoclonal IgM 3G4 (panels E-G), The amiloride-sensitive amine oxidase, copper-containing protein 2 (AO2) is an enzyme exclusively expressed in macrogametes and early oocysts and has a possible role in oocyst wall biogenesis. […] 3G4 is a mouse monoclonal antibody produced by immunizing mice with purified oocyst walls, thus it is a marker of oocyst wall biogenesis. Only monolayers supplemented with linoleic acid (G) had positive 3G4 vacuoles. All panels are 20 μm square with a 5 μm white size bar in the lower right corner. D) Markers for macrogamete and microgamete expression were also evaluated by PCR. Cat intestinal monolayers were grown in 24-well plates until confluency and then infected with T. gondii bradyzoites in duplicate using the same conditions as above. 7 days post-infection, RNA was extracted with TRIzol and cDNA was synthesized using an oligo (dT) primer to only amplify mRNA. AO2 was again used as a marker for macrogametes and the expected PCR product is 218 bp. To assess microgamete presence, we selected the gene TgME49_306338, which is overexpressed in the gametes stage, corresponded to day 7 post-infection in cats and has 44% identity to a protein expressed in the flagella of the motile green algae Chlamydomonas reinhardtii. The expected PCR product for TgME49_306338 is 160 bp. TUB1A was used as an input control and results in a 172 bp product. NO RT corresponds to a cDNA synthesis reaction without the addition of reverse transcriptase (RI) as a control for genomic DNA contamination. Equivalent amounts of cDNA per sample were used as a template for each PCR reaction, and the products were separated on an acrylamide gel. […] H) The number of positive oocyst walls stained with 3G4 were quantified. […] The number of positive oocyst walls were counted in each slide and divided by the area of slide in cm^2.
Immunofluorescence. Intestinal organoid monolayers or mouse fecal samples were fixed in 3.7% formaldehyde in PBS for 20 minutes, permeabilized with 0.2% triton X-100 (Sigma) in PBS at room temperature for one hour and then blocked with 3% BSA in PBS at room temperature for one hour. Primary antibody was incubated at 4° C. overnight in 0.2% v/v Triton x-100 and 3% BSA in PBS (1:100 mouse anti-GRA11B, 1:100 rabbit anti-BRP1, 1:100 mouse anti-AO2, 1:50 monoclonal mouse anti-ZO1 (Santa Cruz) or 1:25 mouse 288 IgM anti-oocyst wall 3G4. Sporulated oocysts from mouse feces were dried onto slides, fixed and permeabilized with ice cold acetone for 30 minutes and incubated with 1:20 mouse 4B6 to the visualize the sporocyst. Slides were incubated one hour with the specific secondary antibody (1:500 goat anti-rabbit Alexa Fluor 488 and 1:500 goat anti-mouse Alexa Fluor 594) at room temperature for one hour and then washed 3 times with PBS. Cells nuclei were stained with 10 μM DAPI (Sigma). Slides were mounted in Vectashield antifade mounting medium (VectorLabs). Samples were imaged on Zeiss Axioplan III equipped with a triple-pass (DAPI/fluorescein isothiocyanate [FITC]/Texas Red) emission cube, differential interference contrast optics, and a monochromatic Axiocam camera operated by Zen software (Zeiss) and processed using ImageJ (Fiji packet).
PCR of cat intestinal monolayers. […]

## CCCCC/C=C\C/C=C\CCCCCCCC(=O)O [linoleic acid]
T. gondii
  SAG1 Ct mean: 35.84
T. gondii; wells 1-3
  SAG1 raw Ct values: 37.02 and 36.43 and 34.08
Asexual tachyzoite stage
  cytotoxicity for the asexual tachyzoite stage: cytotoxic
[1]; cat cells, 20 μM linoleic acid
  oocyst wall production: did not enhance oocyst wall production
[1]; cat intestinal monolayers, 200 μM fatty acid, 7 days of infection
  macrogamete protein AO2 by immunofluorescence: round structures were seen with reactivity to the macrogamete protein AO210; also recorded: only detected by immunofluorescence in the monolayers supplemented with linoleic acid
[1]; cat intestinal monolayers, 200 μM, 7 days post-infection
  AO2 and TgME49_306338 expression by PCR (bands with the correct size): only observed in linoleic acid supplemented monolayers
[1]; cultured cat cells, 200 μM fatty acid, 7 days of infection
  number of positive oocyst walls stained with 3G4: approximately 9 oocyst walls per cm^2
